How the values were obtained:
[1] = biological target: T1, human orexin 1 receptors (Homo sapiens (Human), UniProt O43613); test: Radioligand Binding Assay II ([3H]-SB649868 competition, cell membranes); settings: read-out: binding II hOx1R Kd
Method: (§1) Radioligand Binding Assay II
(§2) For crude cell membrane preparations, cells (CHO, Chinese hamster ovary or HEK, human embryonic kidney) expressing human orexin 1 or human orexin 2 receptors, were washed with HEPES (10 mM, pH 7.5), scraped off the culture plates with the same buffer, and centrifuged at 4° C. for 5 min at 2500×g. The cell pellet was either stored at −80° C. or used directly. Before the experiments, cell membranes were re-suspended in binding assay buffer (10 mM HEPES, 0.5% (w/v) bovine serum albumin, pH 7.5) by homogenisation with a Polytron homogeniser at 50 Hz for 20 s. Cell membranes were also used as made available by commercial providers.
(§3) Bound radioactivity was measured, and data were analysed with the program XLFIT or Graphpad Prism. Protein concentration was determined according to the Bradford/BioRad Protein Assay Kit.
(§4) In competition experiments, cell homogenates (150 μl) were incubated in assay buffer (10 mM HEPES, pH 7.5, 0.5% (w/v) bovine serum albumin, 5 mM MgCl2, 1 mM CaCl2, and tween 0.05%) for 1 h at room temperature with about 1 nM of the radioligand [^3H]-SB649868, 66 Ci/mmole, 50 μl), and with various concentrations of compounds of the invention (50 μl) in triplicates; non-specific binding was determined in the presence of almorexant (10 μM). Reactions were terminated by vacuum filtration, 3 washes of ice cold wash buffer (Tris-HCl pH 7.4/10 mM, with NaCl 154 mM). Competition data is expressed in Table 2 as Kd [μM].

[2] = biological target: T2, human orexin 2 receptors (Homo sapiens (Human), UniProt O43614); test: as above; settings: read-out: binding II hOx2R Kd
Method: as §1, §2, §3
as §4, with “mM).” for “mM). Competition data is expressed in Table 2 as Kd [μM].”

[3] = biological target: T1, human orexin 1 receptors; test: Calcium Accumulation in Cells (FLIPR), antagonism of orexin A; format: cell-based; settings: antagonism of orexin A, Cheng-Prusoff corrected; read-out: FLIPR hOx1R Ki
[4] = biological target: T2, human orexin 2 receptors; test: as above; format: cell-based; settings: antagonism of orexin A, Cheng-Prusoff corrected; read-out: FLIPR hOx2R Ki
Summary of the method: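 Antagonism was measured as block of orexin A-evoked Ca²⁺ fluorescence (FLIPR), with orexin A added one hour after test compound (usually 10^−9–10^−5 M), which was first read alone for agonist activity. Human orexin 2 receptor cells were dye-loaded with 2 μM Fluo4-AM and 0.1 mM probenecid for 1 h.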

T1 sequence (O43613 whole entry): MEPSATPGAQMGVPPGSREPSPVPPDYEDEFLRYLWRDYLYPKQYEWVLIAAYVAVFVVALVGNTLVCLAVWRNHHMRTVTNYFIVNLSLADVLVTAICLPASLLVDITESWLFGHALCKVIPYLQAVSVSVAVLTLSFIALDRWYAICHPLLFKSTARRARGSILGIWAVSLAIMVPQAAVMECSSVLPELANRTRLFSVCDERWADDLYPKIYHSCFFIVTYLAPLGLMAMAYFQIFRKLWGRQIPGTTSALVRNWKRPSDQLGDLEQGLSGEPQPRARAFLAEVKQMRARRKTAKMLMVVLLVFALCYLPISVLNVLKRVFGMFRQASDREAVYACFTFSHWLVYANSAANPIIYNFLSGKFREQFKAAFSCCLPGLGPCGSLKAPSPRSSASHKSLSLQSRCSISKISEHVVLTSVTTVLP
T2 sequence (O43614 whole entry): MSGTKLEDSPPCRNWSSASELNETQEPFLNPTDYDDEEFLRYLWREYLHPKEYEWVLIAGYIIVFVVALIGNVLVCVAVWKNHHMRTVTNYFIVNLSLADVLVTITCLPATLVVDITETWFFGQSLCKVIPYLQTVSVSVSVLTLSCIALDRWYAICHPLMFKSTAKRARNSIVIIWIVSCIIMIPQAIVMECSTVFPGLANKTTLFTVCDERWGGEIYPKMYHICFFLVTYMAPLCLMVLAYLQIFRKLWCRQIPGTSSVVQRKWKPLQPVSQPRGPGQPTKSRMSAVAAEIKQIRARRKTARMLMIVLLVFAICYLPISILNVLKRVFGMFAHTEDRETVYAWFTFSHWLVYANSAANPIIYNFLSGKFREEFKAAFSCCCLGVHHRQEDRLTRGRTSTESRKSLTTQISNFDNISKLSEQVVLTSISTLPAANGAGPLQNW

Row | Compound | Kd [1] [nM] | Kd [2] [nM] | Ki [3] [nM] | Ki [4] [nM]
1 | Cc1ccc([C@H](C)NC(=O)COc2cc(C(F)F)c3c(C4CC4)nn(C)c3n2)cc1 [Example 6.8, (S)-2-(3-cyclopropyl-4-(difluoromethyl)-1-methyl-1H-pyrazolo[3,4-b]pyridin-6-yloxy)-N-(1-p-tolylethyl)acetamide] | 22 | 19 | 14 | 5
2 | Cc1ccc([C@H](C)NC(=O)COc2cc(C(F)(F)F)c3c(C4CC4)nn(C)c3n2)cc1 [Example 6.13, (S)-2-(3-cyclopropyl-1-methyl-4-(trifluoromethyl)-1H-pyrazolo[3,4-b]pyridin-6-yloxy)-N-(1-p-tolylethyl)acetamide] | 44 | 14 | 52 | 6
3 | COc1ccc(C(C)NC(=O)COc2cc(C(F)(F)F)c3c(C4CC4)nn(C)c3n2)cn1 (stereo not drawn) [Example 6.14, 2-(3-cyclopropyl-1-methyl-4-(trifluoromethyl)-1H-pyrazolo[3,4-b]pyridin-6-yloxy)-N-(1-(6-methoxypyridin-3-yl)ethyl)acetamide] | 428 | 141 | 523 | 72
4 | COc1ccc([C@H](C)NC(=O)COc2cc(C(F)(F)F)c3c(C4CC4)nn(C)c3n2)cc1 [Example 6.15, (S)-2-(3-cyclopropyl-1-methyl-4-(trifluoromethyl)-1H-pyrazolo[3,4-b]pyridin-6-yloxy)-N-(1-(4-methoxyphenyl)ethyl)acetamide] | 146 | 37 | 160 | 12
5 | COc1ccc([C@H](C)NC(=O)COc2cc(C(F)F)c3c(-c4ccccc4)nn(C)c3n2)cc1 [Example 6.17, (S)-2-(4-(difluoromethyl)-1-methyl-3-phenyl-1H-pyrazolo[3,4-b]pyridin-6-yloxy)-N-(1-(4-methoxyphenyl)ethyl)acetamide] | 11 | 7 | 19 | 2
6 | Cc1nn(C)c(C)c1C(C)NC(=O)COc1cc(C(F)F)c2c(-c3ccccc3)nn(C)c2n1 (stereo not drawn) [Example 6.20, 2-(4-(difluoromethyl)-1-methyl-3-phenyl-1H-pyrazolo[3,4-b]pyridin-6-yloxy)-N-(1-(1,3,5-trimethyl-1H-pyrazol-4-yl)ethyl)acetamide] | 22 | 90 | 63 | 59
7 | Cc1ccc([C@H](C)NC(=O)COc2cc(C(F)F)c3c(-c4ccccc4)nn(C)c3n2)cc1 [Example 6.21, (S)-2-(4-(difluoromethyl)-1-methyl-3-phenyl-1H-pyrazolo[3,4-b]pyridin-6-yloxy)-N-(1-p-tolylethyl)acetamide] | 37 | 30 | 29 | 7
8 | COc1ccc(C(C)NC(=O)COc2cc(C(F)F)c3c(-c4ccccc4)nn(C)c3n2)cn1 (stereo not drawn) [Example 6.22, 2-(4-(difluoromethyl)-1-methyl-3-phenyl-1H-pyrazolo[3,4-b]pyridin-6-yloxy)-N-(1-(6-methoxypyridin-3-yl)ethyl)acetamide] | 56 | 42 | 175 | 37
9 | COc1ccccc1-c1nn(C)c2nc(OCC(=O)N[C@@H](C)c3ccc(C)cc3)ccc12 [Example 6.24, (S)-2-(3-(2-methoxyphenyl)-1-methyl-1H-pyrazolo[3,4-b]pyridin-6-yloxy)-N-(1-p-tolylethyl)acetamide] | 45 | 150 | 133 | 105
10 | Cc1ccc([C@H](C)NC(=O)COc2ccc3c(C(C)(C)C)nn(C)c3n2)cc1 [Example 6.25, (S)-2-(3-tert-butyl-1-methyl-1H-pyrazolo[3,4-b]pyridin-6-yloxy)-N-(1-p-tolylethyl)acetamide] | 242 | 164 | 545 | 65
11 | Cc1ccc([C@H](C)NC(=O)COc2cc(C)c3c(C(C)C)nn(C)c3n2)cc1 [Example 6.26, (S)-2-(3-isopropyl-1,4-dimethyl-1H-pyrazolo[3,4-b]pyridin-6-yloxy)-N-(1-p-tolylethyl)acetamide] | 119 | 76 | 164 | 32
12 | Cc1ccc([C@H](C)NC(=O)COc2cc(C)c3c(-c4cc(C)oc4C)nn(C)c3n2)cc1 [Example 6.30, (S)-2-(3-(2,5-dimethylfuran-3-yl)-1,4-dimethyl-1H-pyrazolo[3,4-b]pyridin-6-yloxy)-N-(1-p-tolylethyl)acetamide] | 19 | 168 | 10 | 62
13 | COc1ccc([C@H](C)NC(=O)COc2cc(C)c3c(-c4cc(C)oc4C)nn(C)c3n2)cc1 [Example 6.31, (S)-2-(3-(2,5-dimethylfuran-3-yl)-1,4-dimethyl-1H-pyrazolo[3,4-b]pyridin-6-yloxy)-N-(1-(4-methoxyphenyl)ethyl)acetamide] | 40 | 221 | 18 | 47
14 | Cc1cc(-c2nn(C)c3nc(OCC(=O)NC(C)c4c(C)nn(C)c4C)cc(C)c23)c(C)o1 (stereo not drawn) [Example 6.33, 2-(3-(2,5-dimethylfuran-3-yl)-1,4-dimethyl-1H-pyrazolo[3,4-b]pyridin-6-yloxy)-N-(1-(1,3,5-trimethyl-1H-pyrazol-4-yl)ethyl)acetamide] | 14 | 126 | 11 | 170
15 | COc1ccc([C@H](C)NC(=O)COc2cc(C)c3c(-c4ccoc4C)nn(C)c3n2)cc1 [Example 6.34, (S)-2-(1,4-dimethyl-3-(2-methylfuran-3-yl)-1H-pyrazolo[3,4-b]pyridin-6-yloxy)-N-(1-(4-methoxyphenyl)ethyl)acetamide] | 70 | 188 | 103 | 113
16 | COc1ccnc(-c2nn(C)c3nc(OCC(=O)N[C@@H](C)c4ccc(C)cc4)cc(C)c23)c1 [Example 6.37, (S)-2-(3-(4-methoxypyridin-2-yl)-1,4-dimethyl-1H-pyrazolo[3,4-b]pyridin-6-yloxy)-N-(1-p-tolylethyl)acetamide] | 6 | 17 | 7 | 10
17 | Cc1ccc2c(n1)CC[C@@H]2NC(=O)COc1cc(C(F)F)c2c(-c3cc(C)oc3C)nn(C)c2n1 [Example 6.38, (S)-2-(4-(difluoromethyl)-3-(2,5-dimethylfuran-3-yl)-1-methyl-1H-pyrazolo[3,4-b]pyridin-6-yloxy)-N-(2-methyl-6,7-dihydro-5H-cyclopenta[b]pyridin-5-yl)acetamide] | 123 | 271 | 91 | 64
18 | COc1ccc([C@H](C)NC(=O)COc2cc(C(F)F)c3c(-c4cc(C)oc4C)nn(C)c3n2)cc1 [Example 6.39, (S)-2-(4-(difluoromethyl)-3-(2,5-dimethylfuran-3-yl)-1-methyl-1H-pyrazolo[3,4-b]pyridin-6-yloxy)-N-(1-(4-methoxyphenyl)ethyl)acetamide] | 20 | 65 | 15 | 46
19 | Cc1ccc2c(c1)CCC2NC(=O)COc1cc(C)c2c(C3CC3)nn(C)c2n1 (stereo not drawn) [Example 6.41, 2-(3-cyclopropyl-1,4-dimethyl-1H-pyrazolo[3,4-b]pyridin-6-yloxy)-N-(5-methyl-2,3-dihydro-1H-inden-1-yl)acetamide] | 908 | 225 | 495 | 29
20 | COc1ccc2c(c1)CC[C@@H]2NC(=O)COc1cc(C(F)F)c2c(C3CC3)nn(C)c2n1 [Example 6.42, (S)-2-(3-cyclopropyl-4-(difluoromethyl)-1-methyl-1H-pyrazolo[3,4-b]pyridin-6-yloxy)-N-(5-methoxy-2,3-dihydro-1H-inden-1-yl)acetamide] | 63 | 14 | 83 | 10
21 | COc1ccc2c(c1)CC[C@@H]2NC(=O)COc1cc(C(F)(F)F)c2c(C3CC3)nn(C)c2n1 [Example 6.43, (S)-2-(3-cyclopropyl-1-methyl-4-(trifluoromethyl)-1H-pyrazolo[3,4-b]pyridin-6-yloxy)-N-(5-methoxy-2,3-dihydro-1H-inden-1-yl)acetamide] | 206 | 18 | 234 | 3

— patent US8742106B2 (Novartis AG, priority 2009, dated 2014)
